The source of these data is paper PMC9421654, “Discovery of Substituted Di(pyridin-2-yl)-1,2,4-thiadiazol-5-amines as Novel Macrofilaricidal Compounds for the Treatment of Human Filarial Infections” (Journal of Medicinal Chemistry, 2022).

The series is described as follows: Rat pharmacokinetics. The conditions noted are these: in vivo. From the text: Table S1. Compound 31cross species PK data.

The term clearance denotes the rate of elimination divided by the concentration. A lower clearance goes with inefficient removal. For orientation: AUC(0-inf) means the area under the concentration-time curve extrapolated to infinity. A low value points to low exposure. What is called Cmax is the maximum level reached in the sampled fluid or tissue. In general, Tmax refers to the time at which the peak concentration occurs. By bioavailability is commonly meant dose-corrected exposure relative to a reference, in per cent. A high value points to good availability.

For the setting “iv, i.v. 2 mg/kg, mean ±SD”, `CC(C)Oc1ccc(-c2nsc(Nc3ncccc3N(C)C)n2)nc1` [Compound 31, N^2-(3-(5-Isopropoxypyridin-2-yl)-1,2,4-thiadiazol-5-yl)-N3,N3-dimethylpyridine-2,3-diamine] displayed a clearance of 8.22 ± 2.72 mL/min/kg. Besides, the Vd (iv, i.v. 2 mg/kg, read-out: Vss) amounted to 2.07 ± 0.92 L/kg. Further, where the note is “po, p.o. 10 mg/kg”, the AUC(0-inf) was found to be 38.1 ± 5.1 µM·h, the highest level (Cmax) was 6.28 ± 0.9 µM, the time to peak (Tmax) turned out to be 2 h and the bioavailability is 63 ± 20%.
